A value given as a limit tells only on which side of the number the result lay.

For this test, the system named is KARPAS422 human B cell lymphoma cell. Nature of the test: Cell proliferation, KARPAS422, 7 day treatment (WST-8). As to conditions: Homo sapiens, KARPAS-422, 168 h, anti-proliferative IC50, Karpas 422 cell line, 7 day treatment; read-out: Karpas Cell line. Format: cell-based. On the procedure:
“N/A” stands for “not assessed”.
Analysis of Cell Proliferation:
To assess the effect of PRC2 inhibition on cell growth, cells were seeded in 96-well cell culture plates at a density of 2 000-3 000 cells/well in 200 µL of culture medium, and treated with serially diluted compounds for 7 days at 37° C. in an atmosphere of 5% CO2. Cell growth was evaluated by a […] WST-8 assay (Dojindo Molecular Technologies) using a Tecan Infinite M1000 multimode microplate reader (Tecan, Morrisville, NC). The WST-8 reagent was added to the plate, incubated for 1-4 h, and read at 450 nm. The readings were normalized to the DMSO-treated cells, and the IC50 was calculated by nonlinear regression analysis using GraphPad Prism 6 software
(In general: Formazan colour is commonly taken as a measure of viable cells.)
As for `CNC(=O)c1ncn2c(NCc3ccccc3OC)ncc(-c3ccccc3)c12` [compound 136, 5-((2-methoxybenzyl)amino)-N-methyl-8-phenylimidazo[1,5-c]pyrimidine-1-carboxamide], the IC50 was over 100 nM.
For `O=C1c2ncn3c(NCc4c(F)ccc5c4CCO5)ncc(c23)-c2ccc(C(F)(F)F)cc2CN1CC(F)F` [compound 81, 4-(2,2-difluoroethyl)-12-(((5-fluoro-2,3-dihydrobenzofuran-4-yl)methyl)amino)-7-(trifluoromethyl)-4,5-dihydro-3H-2,4,11,12a-tetraazabenzo[4,5]cycloocta[1,2,3-cd]inden-3-one], the IC50 was 1.43 nM.
Consider `CNC(=O)c1ncn2c(NCc3c(F)ccc(F)c3OC)ncc(-c3ccccc3)c12` [compound 138, 5-((3,6-difluoro-2-methoxybenzyl)amino)-N-methyl-8-phenylimidazo[1,5-c]pyrimidine-1-carboxamide], for which the IC50 was over 100 nM.
The figure for `CNC(=O)c1ncn2c(NCc3c(F)ccc(OC)c3Cl)ncc(-c3ccccc3)c12` [compound 140, 5-((2-chloro-6-fluoro-3-methoxybenzyl)amino)-N-methyl-8-phenylimidazo[1,5-c]pyrimidine-1-carboxamide] is over 100 nM; for `CN1CCC(N2Cc3cc(C(F)(F)F)ccc3-c3cnc(NCc4c(F)ccc5c4CCO5)n4cnc(c34)C2=O)CC1` [compound 74, 12-(((5-fluoro-2,3-dihydrobenzofuran-4-yl)methyl)amino)-4-(1-methylpiperidin-4-yl)-7-(trifluoromethyl)-4,5-dihydro-3H-2,4,11,12a-tetraazabenzo[4,5]cycloocta[1,2,3-cd]inden-3-one] it is 47 nM.
The figure for `CNC(=O)c1ncn2c(NCc3c(F)cccc3OC)ncc(-c3ccccc3)c12` [compound 137, 5-((2-fluoro-6-methoxybenzyl)amino)-N-methyl-8-phenylimidazo[1,5-c]pyrimidine-1-carboxamide] is over 100 nM; for `CCOC(=O)c1ncn2c(NCc3c(F)ccc4c3CCO4)ncc(-c3ccccc3)c12` [compound 135, ethyl 5-(((5-fluoro-2,3-dihydrobenzofuran-4-yl)methyl)amino)-8-phenylimidazo[1,5-c]pyrimidine-1-carboxylate] it is 7.07 nM.
The figure for `CCOC(=O)c1ncn2c(NCc3cccc4c3OCO4)ncc(-c3ccccc3)c12` [compound 134, ethyl 5-((benzo[d][1,3]dioxol-4-ylmethyl)amino)-8-phenylimidazo[1,5-c]pyrimidine-1-carboxylate] is over 100 nM; for `CNC(=O)c1ncn2c(NCc3cccc4c3OCO4)ncc(-c3ccccc3)c12` [compound 141, 5-((benzo[d][1,3]dioxol-4-ylmethyl)amino)-N-methyl-8-phenylimidazo[1,5-c]pyrimidine-1-carboxamide] it is over 100 nM; for `CP(C)(=O)c1ncn2c(NCc3c(F)ccc4c3CCO4)ncc(-c3ccccc3)c12` [Cpd. No. 144, (5-(((5-fluoro-2,3-dihydrobenzofuran-4-yl)methyl)amino)-8-phenylimidazo[1,5-c]pyrimidin-1-yl)dimethylphosphine oxide] it is over 10 nM.
For the compound `CC(C)(F)CN1Cc2cc(C(F)(F)F)ccc2-c2cnc(NCc3c(F)ccc4c3CCO4)n3cnc(c23)C1=O` [compound 62, 12-(((5-fluoro-2,3-dihydrobenzofuran-4-yl)methyl)amino)-4-(2-fluoro-2-methylpropyl)-7-(trifluoromethyl)-4,5-dihydro-3H-2,4,11,12a-tetraazabenzo[4,5]cycloocta[1,2,3-cd]inden-3-one], the IC50 is 4.86 nM.
`O=C1c2ncn3c(NCc4c(F)ccc5c4CCO5)ncc(c23)-c2ccc(C(F)(F)F)cc2CN1CCF` [compound 61, 12-(((5-fluoro-2,3-dihydrobenzofuran-4-yl)methyl)amino)-4-(2-fluoroethyl)-7-(trifluoromethyl)-4,5-dihydro-3H-2,4,11,12a-tetraazabenzo[4,5]cycloocta[1,2,3-cd]inden-3-one]: the IC50 was found to be 1.63 nM.

The values are drawn from patent US12145944B2, “Imidazopyrimidines as EED inhibitors and the use thereof” (THE REGENTS OF THE UNIVERSITY OF MICHIGAN, priority 2019, dated 2024).
